Patent US20230248626A1, “Compositions Comprising (Bio)-Alkanediols” (Symrise AG, priority 0001, published 2023)

Columns and labels:
[1] = tested on: Staphylococcus aureus (SA); experiment: Preservation efficacy test (PET), European Pharmacopoeia 5.1.3; assay type: cell-based
Description: (§1) The preservation efficacy test (PET) was performed in accordance with European Pharmacopoeia § 5.1.3: The test is a reference European Pharmacopoeia method, that is to be used to evaluate the preservation system of a cosmetic or pharmaceutical preparation. The test consists of challenging the preparation under test, with prescribed inoculums of suitable microorganisms. The preservation porperties of the preparation are adequate if, in the conditions of the test, there is a significant fall or no increase, as appropriate, in the number of microorganisms in the inoculated preparations after the time prescribed.
(§2) The test microorganisms which were used, are the following:
(§3) Pseudomonas aeruginosa (PA) (bacterium); Staphylococcus aureus (SA) (bacterium); Escherichia coli (EC) (bacterium); Candida albicans (CA) (yeast); and Aspergillus brasiliensis (AB) (fungus).

[2] = tested on: Aspergillus brasiliensis (AB); experiment: as above; assay type: cell-based
Description: as §1, §2, §3

Candida albicans (CA) = experiment: as above; assay type: cell-based
Description: as §1, §2, §3

Escherichia coli (EC) = experiment: as above; assay type: cell-based
Description: as §1, §2, §3

[3] = tested on: Pseudomonas aeruginosa (PA); experiment: as above; assay type: cell-based
Description: as §1, §2, §3

Aspergillus brasiliensis = experiment: MIC and Kull synergy index of 1,2-/2,3-alkanediol mixtures; assay type: cell-based; conditions: single 1,2-alkanediol, read-out: MIC Component A
[4] = Sensory evaluation on the backside of the hand (spreading, fatty/greasy skin feel, absorption), untrained panellists; conditions: for Absorption/remaining residue with alkanediol: scale 1 to 5
Description: For evaluating the sensory behaviour, liquid lipophilic components specified in the following table were blended with 1,2-heptanediol or 2,3-heptanediol or a mixture of 1,2-heptanediol and 2,3-heptanediol or 1,2-octanediol or 2,3-octanediol or a mixture of 1,2-octanediol and 2,3-octanediol (formulation) in a ratio of 85:15 and assessed by untrained panellists in comparison to the liquid lipophilic component without addition of the specified alkanediols (placebo).
The test procedure was carried as follows: For evaluating the sensory behaviour of 1,2-alkanediols and/or 2,3-alkanediols in combination with different liquid lipophilic components, oil components specified in the following table were blended with a 1,2-alkanediol or a 2,3-alkanediol or a mixture including a 1,2-alkanediol and a 2,3-alkanediol in a ratio as specified in Table 53 and assessed by untrained panellists in comparison to the liquid lipophilic component without addition of the 1,2-alkanediol or 2,3-alkanediol or the mixture including a 1,2-alkanediol and 2,3-alkanediol (placebo).
Test Procedure: • Hands were pre-washed with liquid soap by following a defined procedure; 30 μl of corresponding sample was applied on the backside of each hand (randomized); • After 30 s the spreading behaviour of the respective formulation on skin was evaluated versus the respective oil component without 1,2-heptanediol on a scale from 1 to 5 (1=low spreading; 5=high spreading); • The samples were distributed with the fingertips of middle and forefinger with 2×5 cycles; • After 2 minutes, the fatty/greasy skin feel was evaluated on a scale from 1 to 5 (1=low fatty/greasy skin feel; 5=high fatty/greasy skin feel); • Furthermore the applicants were asked to assess the absorption, i.e. the impression of amount of remaining residue on the skin on a scale from 1 to 5 (1=low absorption; 5=high absorption).

MIC (Aspergillus brasiliensis): 5000 µg/mL | Absorption/remaining residue Delta ([4]; blend with Argan Oil vs without): 1 | Absorption/remaining residue with alkanediol ([4]; blend with Argan Oil): 2.8 | Absorption/remaining residue Delta ([4]; blend with Avocado Oil vs without): 1.2 | Absorption/remaining residue with alkanediol ([4]; blend with Avocado Oil): 2.6 | Absorption/remaining residue Delta ([4]; blend with Butyrospermum Parkii (Shea) Butter vs without): 1.5 | Absorption/remaining residue with alkanediol ([4]; blend with Butyrospermum Parkii (Shea) Butter): 2.7 | Absorption/remaining residue Delta ([4]; blend with Cacao butter vs without): 0 | Absorption/remaining residue with alkanediol ([4]; blend with Cacao butter): 3.6 | Absorption/remaining residue Delta ([4]; blend with Caprylic Capric Triglyceride (neutral oil), rows r50-r56, vs without): 0.6 | Absorption/remaining residue with alkanediol ([4]; blend with Caprylic Capric Triglyceride (neutral oil), rows r50-r56): 2.7 | Absorption/remaining residue Delta ([4]; blend with Castor Oil vs without): 0.4 | Absorption/remaining residue with alkanediol ([4]; blend with Castor Oil): 4 | Absorption/remaining residue Delta ([4]; blend with Cetearyl Nonanoate (SymMollient S), row r161, vs without): 1.2 | Absorption/remaining residue with alkanediol ([4]; blend with Cetearyl Nonanoate (SymMollient S), row r161): 2 | Absorption/remaining residue Delta ([4]; blend with Cetearyl Nonanoate, rows r199-r201, vs without): 1.6 | Absorption/remaining residue with alkanediol ([4]; blend with Cetearyl Nonanoate, rows r199-r201): 3.2 | Absorption/remaining residue Delta ([4]; blend with Chlorella oil (biotech) vs without): 0.2 | Absorption/remaining residue with alkanediol ([4]; blend with Chlorella oil (biotech)): 3 | Absorption/remaining residue Delta ([4]; blend with Coconut Oil vs without): 1.4 | Absorption/remaining residue with alkanediol ([4]; blend with Coconut Oil): 2 | Absorption/remaining residue Delta ([4]; blend with Ethylhexyl Methoxycinnamate (Neo Heliopan AV) vs without): 0.5 | Absorption/remaining residue with alkanediol ([4]; blend with Ethylhexyl Methoxycinnamate (Neo Heliopan AV)): 3 | Absorption/remaining residue Delta ([4]; blend with Ethylhexyl Salicylate (Neo Heliopan OS) vs without): 1.3 | Absorption/remaining residue with alkanediol ([4]; blend with Ethylhexyl Salicylate (Neo Heliopan OS)): 2.2 | Absorption/remaining residue Delta ([4]; blend with Grapeseed Oil vs without): 0.2 | Absorption/remaining residue with alkanediol ([4]; blend with Grapeseed Oil): 2.8 | Absorption/remaining residue Delta ([4]; blend with Helianthus Annuus (Sunflower) Seed Oil vs without): 1.3 | Absorption/remaining residue with alkanediol ([4]; blend with Helianthus Annuus (Sunflower) Seed Oil): 2 | Absorption/remaining residue Delta ([4]; blend with Hexyldecanol (Eutanol G) vs without): 0.2 | Absorption/remaining residue with alkanediol ([4]; blend with Hexyldecanol (Eutanol G)): 2.7 | Absorption/remaining residue Delta ([4]; blend with Homosalate (Neo Heliopan HMS) vs without): 0.3 | Absorption/remaining residue with alkanediol ([4]; blend with Homosalate (Neo Heliopan HMS)): 2.5 | Absorption/remaining residue Delta ([4]; blend with Isoamyl p-Methoxycinnamate (Neo Heliopan E 1000) vs without): 1.7 | Absorption/remaining residue with alkanediol ([4]; blend with Isoamyl p-Methoxycinnamate (Neo Heliopan E 1000)): 2.5 | Absorption/remaining residue Delta ([4]; blend with Microalgae oil vs without): 1.2 | Absorption/remaining residue with alkanediol ([4]; blend with Microalgae oil): 2.5 | Absorption/remaining residue Delta ([4]; blend with Octocrylene (Neo Heliopan 303), row r184 (UV filter), vs without): 1.3 | Absorption/remaining residue with alkanediol ([4]; blend with Octocrylene (Neo Heliopan 303), row r184 (UV filter)): 2.7 | Absorption/remaining residue Delta ([4]; blend with Octocrylene (Neo Heliopan 303), vs without): 0.5 | Absorption/remaining residue with alkanediol ([4]; blend with Octocrylene (Neo Heliopan 303)): 3.5 | Absorption/remaining residue Delta ([4]; blend with Olive Oil vs without): 1.6 | Absorption/remaining residue with alkanediol ([4]; blend with Olive Oil): 2.4 | Absorption/remaining residue Delta ([4]; blend with Propanediol Dicaprylate/Dicaprate (Symollient PDCC) vs without): 0.1 | Absorption/remaining residue with alkanediol ([4]; blend with Propanediol Dicaprylate/Dicaprate (Symollient PDCC)): 2.4 | Absorption/remaining residue Delta ([4]; blend with Prunus Amygdalus Dulcis (Sweet Almond) Oil vs without): 1.5 | Absorption/remaining residue with alkanediol ([4]; blend with Prunus Amygdalus Dulcis (Sweet Almond) Oil): 2.2 | Absorption/remaining residue Delta ([4]; blend with Simmondsia Chinensis (Jojoba) Seed Oil vs without): 1.2 | Absorption/remaining residue with alkanediol ([4]; blend with Simmondsia Chinensis (Jojoba) Seed Oil): 2.5
SMILES: CCCCCC(O)CO (stereo not shown) [1,2-heptanediol]
number of microorganisms after 2 days ([1]; 0.1% in shampoo): 10 | number of microorganisms after 7 days ([1]; 0.1% in shampoo): 10 | number of microorganisms after 14 days ([1]; 0.1% in shampoo): 1 | number of microorganisms after 28 days ([1]; 0.1% in shampoo): 1 | number of microorganisms after 2 days ([1]; 0.2% in o/w emulsion): 95,000 | number of microorganisms after 7 days ([1]; 0.2% in o/w emulsion): 1 | number of microorganisms after 14 days ([1]; 0.2% in o/w emulsion): 1 | number of microorganisms after 28 days ([1]; 0.2% in o/w emulsion): 1 | number of microorganisms after 2 days ([1]; 0.4% in o/w emulsion): 15,000 | number of microorganisms after 7 days ([1]; 0.4% in o/w emulsion): 2,600 | number of microorganisms after 14 days ([1]; 0.4% in o/w emulsion): 1 | number of microorganisms after 28 days ([1]; 0.4% in o/w emulsion): 1 | number of microorganisms after 2 days ([2]; 0.1% in shampoo): 240,000 | number of microorganisms after 7 days ([2]; 0.1% in shampoo): 220,000 | number of microorganisms after 14 days ([2]; 0.1% in shampoo): 150,000 | number of microorganisms after 28 days ([2]; 0.1% in shampoo): 19,000 | number of microorganisms after 2 days ([2]; 0.2% in o/w emulsion): 2,200,000 | number of microorganisms after 7 days ([2]; 0.2% in o/w emulsion): 2,000,000 | number of microorganisms after 14 days ([2]; 0.2% in o/w emulsion): 2,500,000 | number of microorganisms after 28 days ([2]; 0.2% in o/w emulsion): 2,100,000 | number of microorganisms after 2 days ([2]; 0.4% in o/w emulsion): 1,000,000 | number of microorganisms after 7 days ([2]; 0.4% in o/w emulsion): 180,000 | number of microorganisms after 14 days ([2]; 0.4% in o/w emulsion): 150,000 | number of microorganisms after 28 days ([2]; 0.4% in o/w emulsion): 1 | number of microorganisms after 2 days (Candida albicans (CA); 0.1% in shampoo): 220,000 | number of microorganisms after 7 days (Candida albicans (CA); 0.1% in shampoo): 62,000 | number of microorganisms after 14 days (Candida albicans (CA); 0.1% in shampoo): 8,100 | number of microorganisms after 28 days (Candida albicans (CA); 0.1% in shampoo): 1 | number of microorganisms after 2 days (Candida albicans (CA); 0.2% in o/w emulsion): 1,300,000 | number of microorganisms after 7 days (Candida albicans (CA); 0.2% in o/w emulsion): 1,600,000 | number of microorganisms after 14 days (Candida albicans (CA); 0.2% in o/w emulsion): 1,200,000 | number of microorganisms after 28 days (Candida albicans (CA); 0.2% in o/w emulsion): 620,000 | number of microorganisms after 2 days (Candida albicans (CA); 0.4% in o/w emulsion): 71,000 | number of microorganisms after 7 days (Candida albicans (CA); 0.4% in o/w emulsion): 2,800 | number of microorganisms after 14 days (Candida albicans (CA); 0.4% in o/w emulsion): 1 | number of microorganisms after 28 days (Candida albicans (CA); 0.4% in o/w emulsion): 1 | number of microorganisms after 2 days (Escherichia coli (EC); 0.1% in shampoo): 2,100,000 | number of microorganisms after 7 days (Escherichia coli (EC); 0.1% in shampoo): 1,400,000 | number of microorganisms after 14 days (Escherichia coli (EC); 0.1% in shampoo): 200,000 | number of microorganisms after 28 days (Escherichia coli (EC); 0.1% in shampoo): 1 | number of microorganisms after 2 days (Escherichia coli (EC); 0.2% in o/w emulsion): 38,000 | number of microorganisms after 7 days (Escherichia coli (EC); 0.2% in o/w emulsion): 73 | number of microorganisms after 14 days (Escherichia coli (EC); 0.2% in o/w emulsion): 1 | number of microorganisms after 28 days (Escherichia coli (EC); 0.2% in o/w emulsion): 1 | number of microorganisms after 2 days (Escherichia coli (EC); 0.4% in o/w emulsion): 23,000 | number of microorganisms after 7 days (Escherichia coli (EC); 0.4% in o/w emulsion): 4,100 | number of microorganisms after 14 days (Escherichia coli (EC); 0.4% in o/w emulsion): 1 | number of microorganisms after 28 days (Escherichia coli (EC); 0.4% in o/w emulsion): 1 | number of microorganisms after 2 days ([3]; 0.1% in shampoo): 2,500 | number of microorganisms after 7 days ([3]; 0.1% in shampoo): 10 | number of microorganisms after 14 days ([3]; 0.1% in shampoo): 1 | number of microorganisms after 28 days ([3]; 0.1% in shampoo): 1 | number of microorganisms after 2 days ([3]; 0.2% in o/w emulsion): 1 | number of microorganisms after 7 days ([3]; 0.2% in o/w emulsion): 1 | number of microorganisms after 14 days ([3]; 0.2% in o/w emulsion): 1 | number of microorganisms after 28 days ([3]; 0.2% in o/w emulsion): 1 | number of microorganisms after 2 days ([3]; 0.4% in o/w emulsion): 1 | number of microorganisms after 7 days ([3]; 0.4% in o/w emulsion): 1 | number of microorganisms after 14 days ([3]; 0.4% in o/w emulsion): 1 | number of microorganisms after 28 days ([3]; 0.4% in o/w emulsion): 1
